Results published in patent US5639783A, “Ketone derivatives” (Mitsubishi Chemical Corporation, priority 1991, dated 1997).

Target: T1, m-calpain (Rattus norvegicus, UniProt Q07009)
T1 construct: m-calpain was purified from rat brain; from tissue; host or cells: rat brain
T1 sequence (Q07009 20-700 limits assumed): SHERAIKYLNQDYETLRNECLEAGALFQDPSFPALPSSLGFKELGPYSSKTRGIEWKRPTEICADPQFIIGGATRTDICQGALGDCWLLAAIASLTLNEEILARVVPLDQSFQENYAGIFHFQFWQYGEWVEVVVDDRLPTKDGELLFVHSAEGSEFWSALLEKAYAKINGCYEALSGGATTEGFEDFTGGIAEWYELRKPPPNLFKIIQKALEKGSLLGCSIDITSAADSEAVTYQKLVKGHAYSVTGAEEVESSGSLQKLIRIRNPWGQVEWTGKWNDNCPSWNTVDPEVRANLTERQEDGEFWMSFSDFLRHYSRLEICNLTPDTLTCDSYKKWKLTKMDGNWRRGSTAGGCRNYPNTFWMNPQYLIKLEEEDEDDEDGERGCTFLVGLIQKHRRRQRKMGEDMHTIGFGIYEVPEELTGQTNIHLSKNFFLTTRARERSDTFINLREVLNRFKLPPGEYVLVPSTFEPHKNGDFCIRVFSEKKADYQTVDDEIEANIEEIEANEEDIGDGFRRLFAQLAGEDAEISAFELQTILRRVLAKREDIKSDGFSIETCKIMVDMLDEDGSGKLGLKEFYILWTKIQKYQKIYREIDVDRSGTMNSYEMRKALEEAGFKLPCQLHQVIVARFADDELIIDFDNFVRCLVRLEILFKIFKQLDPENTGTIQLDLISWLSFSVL
T1 sequence (Q64537 1-270 partner): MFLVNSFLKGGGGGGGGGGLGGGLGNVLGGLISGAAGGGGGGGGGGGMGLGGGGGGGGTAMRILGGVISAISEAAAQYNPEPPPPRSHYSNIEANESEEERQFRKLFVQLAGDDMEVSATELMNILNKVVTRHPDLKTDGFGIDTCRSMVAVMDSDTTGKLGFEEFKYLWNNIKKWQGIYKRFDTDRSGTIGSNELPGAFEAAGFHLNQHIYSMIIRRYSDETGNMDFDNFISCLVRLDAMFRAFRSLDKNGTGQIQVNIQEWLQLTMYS
Experiment: Thiol protease inhibitory activity, m-calpain purified from rat brain
Type: biochemical
Conditions: Table 4
Procedure: Inhibitory activity against papain (P-3125, Sigma) and cathepsin B (C-6286, Sigma) was assayed according to the method described in a literature [Biochemical Journal, 201, 189 (1982)]. Cathepsin L was purified from rat kidney according to the method in a literature [Journal of Biochemistry, 100, 35 (1986)], and the inhibitory activity against it was assayed in the same manner as described in the above literature for cathepsin B. Furthermore, m-calpain was purified from rat brain according to a known method [Journal of Biological Chemistry, 254, p. 3210 (1984)] and the inhibitory activity against it was assayed by a method described in a literature [Journal of Biological Chemistry, 259, 12489 (1984)]. It is evident from Tables 3 and 4 that the compounds of the present invention have a potent inhibitory activity against thiol proteases such as papain, cathepsin B, cathepsin L or m-calpain.

SMILES | IC50
CCCC[C@H](NC(=O)[C@H](CC(C)C)NC(=O)OCc1cccc(C#N)c1)C(=O)CSCc1ccco1 [26 (No. 57), (s)-3-[(s)-2-(3-cyanobenzyloxycarbonylamino)-4-methylvalerylamino]-1-furfurylthio-2-heptanone] | 2.8 µM
CCCC[C@H](NC(=O)[C@H](CC(C)C)NC(=O)C1CCCCC1)C(=O)CSCc1ccco1 [29 (No. 65), (s)-3-((s)-2-cyclohexylcarbonylamino-4-methylvalerylamino)-1-furfurylthio-2-heptanone] | 3.6 µM
CCCC[C@H](NC(=O)[C@H](CC(C)C)NC(=O)Cc1cccc2c1OCO2)C(=O)CSCc1ccco1 [32 (No. 73), (s)-1-furfurylthio-3-[(s)-4-methyl-2-(2,3-methylenedioxyphenylacetylamino)valerylamino]-2-heptanone] | 6.2 µM
CCCC[C@H](NC(=O)[C@H](CC(C)C)NC(=O)COc1ccc(OC)cc1)C(=O)CSCc1ccco1 [48 (No. 104), (s)-1-furfurylthio-3-[(s)-2-(4-methoxyphenoxyacetylamino)-4-methylvalerylamino]-2-heptanone] | 1 µM
CCCC[C@H](NC(=O)[C@H](CC(C)C)NC(=O)c1ccc(F)c(F)c1)C(=O)CSCc1ccco1 [62 (No. 124), (s)-3-[(s)-2-(3,4-difluorobenzoylamino)-4-methylvalerylamino]-1-furfurylthio-2-heptanone] | 4.3 µM
CCCC[C@H](NC(=O)[C@H](CC(C)C)NC(=O)c1cc(F)cc(F)c1)C(=O)CSCc1ccco1 [63 (No. 125), (s)-3-[(s)-2-(3,5-difluorobenzoylamino)-4-methylvalerylamino]-1-furfurylthio-2-heptanone] | 5.5 µM
CCCC[C@H](NC(=O)[C@H](CC(C)C)NC(=O)c1ccc(F)c(F)c1F)C(=O)CSCc1ccco1 [64 (No. 126), (s)-1-furfurylthio-3-[(s)-4-methyl-2-(2,3,4-trifluorobenzoylamino)valerylamino]-2-heptanone] | 4.3 µM
CCCC[C@H](NC(=O)[C@H](CC(C)C)NC(=O)c1c(F)ccc(F)c1F)C(=O)CSCc1ccco1 [65 (No. 128), (s)-1-furfurylthio-3-[(s)-4-methyl-2-(2,3,6-trifluorobenzoylamino)valerylamino]-2-heptanone] | 5 µM
CCCC[C@H](NC(=O)[C@H](CC(C)C)NC(=O)c1cc(F)c(F)c(F)c1)C(=O)CSCc1ccco1 [66 (No. 130), (s)-1-furfurylthio-3-[(s)-4-methyl-2-(3,4,5-trifluorobenzoylamino)valerylamino]-2-heptanone] | 1.4 µM
CCCC[C@H](NC(=O)[C@H](CC(C)C)NC(=O)c1cc(F)c(F)c(F)c1F)C(=O)CSCc1ccco1 [67 (No. 132), (s)-1-furfurylthio-3-[(s)-4-methyl-2-(2,3,4,5-tetrafluorobenzoylamino)valerylamino]-2-heptanone] | 2.1 µM
CCCC[C@H](NC(=O)[C@H](CC(C)C)NC(=O)c1c(F)c(F)c(F)c(F)c1F)C(=O)CSCc1ccco1 [68 (No. 135), (s)-1-furfurylthio-3-((s)-4-methyl-2-pentafluorobenzoylaminovalerylamino)-2-heptanone] | 2.1 µM
CCCC[C@H](NC(=O)[C@H](CC(C)C)NC(=O)COc1cccc(OC)c1)C(=O)CSCc1ccco1 [78 (No. 103), (s)-1-furfurylthio-3-[(s)-2-(3-methoxyphenoxyacetylamino)-4-methylvalerylamino]-2-heptanone] | 6 µM
CCCC[C@H](NC(=O)[C@H](CC(C)C)NC(=O)c1cc(OC)cc(OC)c1)C(=O)CSCc1ccco1 [80 (No. 155), (s)-3-[(s)-2-(3,5-dimethoxybenzoylamino)-4-methylvalerylamino]-1-furfurylthio-2-heptanone] | 4.2 µM
CCCC[C@H](NC(=O)[C@H](CC(C)C)NC(=O)c1ccc(C(=O)OC)cc1)C(=O)CSCc1ccco1 [81 (No. 157), (s)-1-furfurylthio-3-[(s)-2-(4-methoxycarbonylbenzoylamino)-4-methylvalerylamino]-2-heptanone] | 3.4 µM
CCCC[C@H](NC(=O)[C@H](CC(C)C)NC(=O)C=Cc1ccc(OC)cc1)C(=O)CSCc1ccco1 [84 (No. 165), (s)-1-furfurylthio-3-[(s)-2-(4-methoxycinnamoylamino)-4-methylvalerylamino]-2-heptanone] | 2.1 µM
CCCC[C@H](NC(=O)[C@H](CC(C)C)NC(=O)C=Cc1ccc(OC)cc1OC)C(=O)CSCc1ccco1 [85 (No. 166)] | 1.3 µM
CCCC[C@H](NC(=O)[C@H](CC(C)C)NC(=O)c1cc2cccc(F)c2o1)C(=O)CSCc1ccco1 [93 (No. 182), (s)-3-[(s)-2-(7-fluoro-2-benzofuranylcarbonylamino)-4-methylvalerylamino]-1-furfurylthio-2-heptanone] | 7.8 µM
CCCC[C@H](NC(=O)[C@H](CC(C)C)NC(=O)OCc1ccccc1)C(=O)CSCc1ccccn1 [105 (No. 226), (s)-3-((s)-2-benzyloxycarbonylamino-4-methylvalerylamino)-1-(2-pyridylmethylthio)-2-heptanone] | 1.3 µM

Continued, values first:

IC50 | SMILES
1.3 µM | CCCC[C@H](NC(=O)[C@H](CC(C)C)NC(=O)COc1ccccc1OC)C(=O)CSCc1ccco1 [47 (No. 102), (s)-1-furfurylthio-3-[(s)-2-(2-methoxyphenoxyacetylamino)-4-methylvalerylamino]-2-heptanone]
1.5 µM | CCCC[C@H](NC(=O)[C@H](CC(C)C)NC(=O)c1ccccc1F)C(=O)CSCc1ccco1 [55 (No. 117), (s)-3-[(s)-2-(2-fluorobenzoylamino)-4-methylvalerylamino]-1-furfurylthio-2-heptanone]
5.2 µM | CCCC[C@H](NC(=O)[C@H](CC(C)C)NC(=O)c1cccc(F)c1)C(=O)CSCc1ccco1 [56 (No. 118), (s)-3-[(s)-2-(3-fluorobenzoylamino)-4-methylvalerylamino]-1-furfurylthio-2-heptanone]
5.3 µM | CCCC[C@H](NC(=O)[C@H](CC(C)C)NC(=O)c1ccc(F)cc1)C(=O)CSCc1ccco1 [57 (No. 119), (s)-3-[(s)-2-(4-fluorobenzoylamino)-4-methylvalerylamino]-1-furfurylthio-2-heptanone]
1.6 µM | CCCC[C@H](NC(=O)[C@H](CC(C)C)NC(=O)c1cccc(F)c1F)C(=O)CSCc1ccco1 [58 (No. 120), (s)-3-[(s)-2-(2,3-difluorobenzoylamino)-4-methylvalerylamino]-1-furfurylthio-2-heptanone]
4.2 µM | CCCC[C@H](NC(=O)[C@H](CC(C)C)NC(=O)c1ccc(F)cc1F)C(=O)CSCc1ccco1 [59 (No. 121), (s)-3-[(s)-2-(2,4-difluorobenzoylamino)-4-methylvalerylamino]-1-furfurylthio-2-heptanone]
1.3 µM | CCCC[C@H](NC(=O)[C@H](CC(C)C)NC(=O)c1cc(F)ccc1F)C(=O)CSCc1ccco1 [60 (No. 122), (s)-3-[(s)-2-(2,5-difluorobenzoylamino)-4-methylvalerylamino]-1-furfurylthio-2-heptanone]
1.9 µM | CCCC[C@H](NC(=O)[C@H](CC(C)C)NC(=O)c1c(F)cccc1F)C(=O)CSCc1ccco1 [61 (No. 123), (s)-3-[(s)-2-(2,6-difluorobenzoylamino)-4-methylvalerylamino]-1-furfurylthio-2-heptanone]
5 µM | CCCC[C@H](NC(=O)[C@H](CC(C)C)NC(=O)c1ccccc1C)C(=O)CSCc1ccco1 [69 (No. 140), (s)-1-furfurylthio-3-[(s)-4-methyl-2-(2-toluoylamino)valerylamino]-2-heptanone]
4.2 µM | CCCC[C@H](NC(=O)[C@H](CC(C)C)NC(=O)c1ccc(C)cc1)C(=O)CSCc1ccco1 [71 (No. 142), (s)-1-furfurylthio-3-[(s)-4-methyl-2-(4-toluoylamino)valerylamino]-2-heptanone]
1.2 µM | CCCC[C@H](NC(=O)[C@H](CC(C)C)NC(=O)c1ccccc1OC)C(=O)CSCc1ccco1 [77 (No. 151), (s)-1-furfurylthio-3-[(s)-2-(2-methoxybenzoylamino)-4-methylvalerylamino]-2-heptanone]
1.9 µM | CCCC[C@H](NC(=O)[C@H](CC(C)C)NC(=O)c1ccc(OC)cc1)C(=O)CSCc1ccco1 [79 (No. 153), (s)-1-furfurylthio-3-[(s)-2-(4-methoxybenzoylamino)-4-methylvalerylamino]-2-heptanone]
